Test system: CD1 female mouse brain lipidome
Assay: Brain-region lipid levels (HPLC/MS/MS lipidomics) 2 h after single i.p. 3 mg/kg CP 55,940 vs vehicle
Assay type: in vivo
Parameters: N-arachidonoyl phenylalanine level, Mean / N-stearoyl tryptophan level, Mean / N-stearoyl proline level, Mean / N-stearoyl leucine level, Mean / N-stearoyl phenylalanine level, Mean / N-stearoyl serine level, Mean / N-stearoyl methionine level, Mean: unit: moles per gram
Conditions: cortex
Description: The Bloomington Institutional Animal Care and Use Committee of Indiana University reviewed and approved the animal procedures. Female mice from the CD1 strain were utilized to match our study examining THC’s effects on the brain lipidome ([Leishman et al., 2018]). Mice were given a single i.p. injection of either 3 mg/kg CP or 1:1:18 cremophor:ethanol:saline vehicle (please refer to the section “3 mg/kg CP Is Relevant for Synthetic Cannabinoid Abuse and Has Stronger Effects on the Female Mouse Brain Lipidome During Adolescence” for a justification of dose and use of female mice). Three different age groups were given injections: PND 35 and PND 50 adolescents, and adult mice (PND 113). At least eight mice in each age group received CP and at least eight received vehicle. Matching the THC study time course ([Leishman et al., 2018]), mice were sacrificed via rapid decapitation 2 h after injection. Brains were immediately removed and flash-frozen in liquid nitrogen, and then stored at -80°C until dissections were performed. Brains were dissected on an ice-cold dissection plate into the following regions: STR, HIPP, CER, THAL, CTX, HYP, MID, and STEM. These abbreviations for these brain areas will be used exclusively when discussing the results generated by these specific dissections. Each dissected area was immediately placed in liquid nitrogen and then stored at -80°C until used for lipid extraction.
Tissue extracts were performed as previously described ([Bradshaw et al., 2006]; [Stuart et al., 2013]; [Raboune et al., 2014]; [Leishman et al., 2016a],[b], [2017], [2018]). First, samples were shock frozen in liquid nitrogen, weighed, and transferred to a centrifuge tube. The mass of the largest sample was multiplied by 50 to determine how many milliliters of HPLC-grade methanol (Fisher, Fair Lawn, NJ, United States) to add. Then, samples were spiked with 500 pmol deuterium-labeled NAGly (d8NAGly; Cayman Chemical, Ann Arbor, MI, United States). Samples were placed on ice in darkness for 2 h then individually homogenized and centrifuged at 19,000 × g for 20 min at 20°C. Supernatants were diluted with HPLC water (purified in house) to make a solution of 75% water, 25% supernatant. Lipids were partially purified on C18 solid phase extraction columns (Agilent, Palo Alto, CA, United States). A series of four elutions with 1.5 mL of 60%, 75%, 85%, and 100% methanol were collected ([Stuart et al., 2013]; [Leishman et al., 2016a],[b], [2018]).
As previously described ([Bradshaw et al., 2006]; [Tan et al., 2006]; [Smoum et al., 2010]; [Stuart et al., 2013]; [Tortoriello et al., 2013]; [Raboune et al., 2014]; [Leishman et al., 2016a],[b], [2017], [2018]), samples were analyzed using an Applied Biosystems API 3000 triple quadrupole mass spectrometer with electrospray ionization (Foster City, CA, United States). Using an Agilent XDB-C18 reversed phase analytical column and optimized mobile phase gradients, 20 μL from each elution were chromatographed. Two Shimadzu 10ADvp pumps (Columbia, MD, United States) provided the pressure for gradient elution. Mobile phase A: 20% methanol, 80% water (v/v) and 1 mM ammonium acetate (Sigma, St. Louis, MO, United States). Mobile phase B: 100% methanol, 1 mM ammonium acetate. Every method run began with 0% mobile phase B, reached 100% mobile phase B flowing at 0.2 mL/min, and gradually returned to 0% mobile phase B.
This screening library will be referred to as the lipidome when discussing data from this study. HPLC/MS/MS data were analyzed using Analyst software (Applied Biosystems) ([Bradshaw et al., 2006]; [Tan et al., 2006]; [Stuart et al., 2013]; [Tortoriello et al., 2013]; [Raboune et al., 2014]; [Leishman et al., 2016a],[b], [2017], [2018]). Chromatograms (Supplementary Figure 3) were generated by determining the retention time of analytes from the analytical column with a [M-1] or [M+1] parent peak and a fragmentation peak corresponding to the programmed values. […]

[1] = PND 50, 3 mg/kg CP 55,940, ANOVA p .000
[2] = PND 50, 3 mg/kg CP 55,940, ANOVA p .002
[3] = PND 50, 3 mg/kg CP 55,940, ANOVA p .004
[4] = PND 50, 3 mg/kg CP 55,940, ANOVA p .040
[5] = PND 50 female mice, 3mg/kg CP 55,940

Compound: CCCCCCC(C)(C)c1ccc([C@@H]2C[C@H](O)CC[C@H]2CCCO)c(O)c1 [CP 55,940]
- Arachidonic acid, Direction (relative to Veh) (PND 50, 3 mg/kg CP 55,940): ↓
- Linoleic acid, Direction (relative to Veh) (PND 50, 3 mg/kg CP 55,940): ↓
- N-arachidonoyl GABA Direction (relative to Veh) (PND 50, 3 mg/kg CP 55,940): ↓
- N-arachidonoyl alanine, Direction (relative to Veh) (PND 50, 3 mg/kg CP 55,940): ↓
- N-arachidonoyl ethanolamine, Direction (relative to Veh) (PND 50, 3 mg/kg CP 55,940): ↓
- N-arachidonoyl phenylalanine, Direction (relative to Veh) (PND 50, 3 mg/kg CP 55,940): ↓
- N-arachidonoyl taurine Direction (relative to Veh) (PND 50, 3 mg/kg CP 55,940): ↓
- N-docosahexaenoyl ethanolamine, Direction (relative to Veh) (PND 50, 3 mg/kg CP 55,940): ↓
- N-linoleoyl ethanolamine, Direction (relative to Veh) (PND 50, 3 mg/kg CP 55,940): ↓
- N-oleoyl ethanolamine, Direction (relative to Veh) (PND 50, 3 mg/kg CP 55,940): ↓
- N-oleoyl serine, Direction (relative to Veh) (PND 50, 3 mg/kg CP 55,940): ↑
- N-palmitoyl leucine, Direction (relative to Veh) (PND 50, 3 mg/kg CP 55,940): ↑
- N-palmitoyl methionine, Direction (relative to Veh) (PND 50, 3 mg/kg CP 55,940): ↑
- N-palmitoyl phenylalanine Direction (relative to Veh) (PND 50, 3 mg/kg CP 55,940): ↑
- N-palmitoyl tyrosine, Direction (relative to Veh) (PND 50, 3 mg/kg CP 55,940): ↑
- N-palmitoyl valine Direction (relative to Veh) (PND 50, 3 mg/kg CP 55,940): ↑
- N-stearoyl phenylalanine, Direction (relative to Veh) (PND 50, 3 mg/kg CP 55,940): ↑
- N-stearoyl valine Direction (relative to Veh) (PND 50, 3 mg/kg CP 55,940): ↑
- PGE2 Direction (relative to Veh) (PND 50, 3 mg/kg CP 55,940): ↓
- Linoleic acid, Magnitude (x Veh level) [1]: 0.57 x Veh level
- N-palmitoyl leucine, Magnitude (x Veh level) [1]: 1.41 x Veh level
- N-palmitoyl methionine, Magnitude (x Veh level) [1]: 1.43 x Veh level
- N-oleoyl ethanolamine, Magnitude (x Veh level) [2]: 0.65 x Veh level
- PGE2 Magnitude (x Veh level) [2]: 0.79 x Veh level
- N-arachidonoyl GABA Magnitude (x Veh level) [3]: 0.86 x Veh level
- N-arachidonoyl taurine Magnitude (x Veh level) [3]: 0.84 x Veh level
- 2-linoleoyl glycerol Magnitude (x Veh level) (PND 50, 3 mg/kg CP 55,940, ANOVA p .005): 0.67 x Veh level
- N-palmitoyl phenylalanine Magnitude (x Veh level) (PND 50, 3 mg/kg CP 55,940, ANOVA p .006): 1.39 x Veh level
- N-arachidonoyl ethanolamine, Magnitude (x Veh level) (PND 50, 3 mg/kg CP 55,940, ANOVA p .007): 0.70 x Veh level
- N-arachidonoyl alanine Magnitude (x Veh level) (PND 50, 3 mg/kg CP 55,940, ANOVA p .012): 0.75 x Veh level
- N-docosahexaenoyl ethanolamine, Magnitude (x Veh level) (PND 50, 3 mg/kg CP 55,940, ANOVA p .014): 0.72 x Veh level
- 2-oleoyl glycerol, Magnitude (x Veh level) (PND 50, 3 mg/kg CP 55,940, ANOVA p .018): 0.88 x Veh level
- N-palmitoyl valine Magnitude (x Veh level) (PND 50, 3 mg/kg CP 55,940, ANOVA p .019): 1.37 x Veh level
- N-stearoyl phenylalanine, Magnitude (x Veh level) (PND 50, 3 mg/kg CP 55,940, ANOVA p .039): 1.12 x Veh level
- Arachidonic acid, Magnitude (x Veh level) [4]: 0.76 x Veh level
- N-oleoyl serine, Magnitude (x Veh level) [4]: 1.09 x Veh level
- N-arachidonoyl phenylalanine, Magnitude (x Veh level) (PND 50, 3 mg/kg CP 55,940, ANOVA p .044): 0.78 x Veh level
- N-palmitoyl tyrosine Magnitude (x Veh level) (PND 50, 3 mg/kg CP 55,940, ANOVA p .053): 1.25 x Veh level
- N-linoleoyl ethanolamine, Magnitude (x Veh level) (PND 50, 3 mg/kg CP 55,940, ANOVA p .066): 0.69 x Veh level
- N-stearoyl valine Magnitude (x Veh level) (PND 50, 3 mg/kg CP 55,940, ANOVA p .067): 1.29 x Veh level
- 2-arachidonoyl glycerol level, Mean [5]: 2.72E-09
- 2-linoleoyl glycerol level, Mean [5]: 9.55E-11
- 2-oleoyl glycerol level, Mean [5]: 1.53E-09
- 2-palmitoyl glycerol level, Mean [5]: 5.35E-09
- 6-ketoPGF1α level, Mean [5]: 5.34E-12
- 11-OH-THC level, Mean [5]: BDL
- 11-nor-9-carboxyTHC level, Mean [5]: BDL
- Arachidonic acid level, Mean [5]: 1.42E-09
- Cannabidiol level, Mean [5]: BDL
- Linoleic acid level, Mean [5]: 9.48E-10
- N- stearoyl valine level, Mean [5]: 2.32E-13
- N-arachidonoyl GABA level, Mean [5]: 1.93E-11
- N-arachidonoyl alanine level, Mean [5]: 9.08E-13
- N-arachidonoyl dopamine level, Mean [5]: BDL
- N-arachidonoyl ethanolamine level, Mean [5]: 1.23E-11
- N-arachidonoyl glycine level, Mean [5]: 3.26E-12
- N-arachidonoyl phenylalanine level, Mean [5]: 4.3E-13
- N-arachidonoyl proline level, Mean [5]: BDL
- N-arachidonoyl serine level, Mean [5]: 1.27E-11
- N-arachidonoyl taurine level, Mean [5]: 5.99E-11
- N-arachidonoyl tryptophan level, Mean [5]: BDL
- N-arachidonoyl tyrosine level, Mean [5]: 1.87E-13
- N-docosahexaenoyl GABA level, Mean [5]: 9.29E-12
- N-docosahexaenoyl ethanolamine level, Mean [5]: 1.26E-11
- N-docosahexaenoyl glycine level, Mean [5]: 3.17E-13
- N-docosahexaenoyl leucine level, Mean [5]: 3.29E-13
- N-docosahexaenoyl methionine level, Mean [5]: BDL
- N-docosahexaenoyl phenylalanine level, Mean [5]: 4.81E-13
- N-docosahexaenoyl proline level, Mean [5]: BDL
- N-docosahexaenoyl serine level, Mean [5]: 1.83E-11
- N-docosahexaenoyl tryptophan level, Mean [5]: BDL
- N-docosahexaenoyl tyrosine level, Mean [5]: 3.22E-13
- N-docosahexaenoyl valine level, Mean [5]: PISSR
- N-linoleoyl GABA level, Mean [5]: 6.54E-12
- N-linoleoyl ethanolamine level, Mean [5]: 1.61E-11
- N-linoleoyl glycine level, Mean [5]: 1.08E-13
- N-linoleoyl leucine level, Mean [5]: 7.72E-14
- N-linoleoyl methionine level, Mean [5]: BDL
- N-linoleoyl phenylalanine level, Mean [5]: 1E-13
- N-linoleoyl proline level, Mean [5]: BDL
- N-linoleoyl serine level, Mean [5]: 6.54E-11
- N-linoleoyl tryptophan level, Mean [5]: BDL
- N-linoleoyl tyrosine level, Mean [5]: BDL
- N-linoleoyl valine level, Mean [5]: PISSR
- N-nervonoyl valine level, Mean [5]: BDL
- N-oleoyl GABA level, Mean [5]: 1.38E-11
- N-oleoyl alanine level, Mean [5]: 1.52E-12
- N-oleoyl dopamine level, Mean [5]: BDL
- N-oleoyl ethanolamine level, Mean [5]: 3.66E-11
- N-oleoyl glycine level, Mean [5]: 1.38E-12
- N-oleoyl leucine level, Mean [5]: 7.87E-13
- N-oleoyl methionine level, Mean [5]: 2.34E-13
- N-oleoyl phenylalanine level, Mean [5]: 1.02E-12
- N-oleoyl proline level, Mean [5]: BDL
- N-oleoyl serine level, Mean [5]: 1.22E-10
- N-oleoyl tryptophan level, Mean [5]: BDL
- N-oleoyl tyrosine level, Mean [5]: 3.4E-13
- N-oleoyl valine level, Mean [5]: 6.43E-14
- N-palmitoyl GABA level, Mean [5]: 1.74E-11
- N-palmitoyl alanine level, Mean [5]: 1.42E-12
- N-palmitoyl ethanolamine level, Mean [5]: 1.43E-11
- N-palmitoyl glycine level, Mean [5]: 6.08E-12

Reference: paper PMC6277767, “Broad and Region-Specific Impacts of the Synthetic Cannabinoid CP 55,940 in Adolescent and Adult Female Mouse Brains” (Frontiers in Molecular Neuroscience, 2018)
